Molecular target: cyt P460 (Nitrosomonas europaea, UniProt Q50927)
Test: biochemical

cyt P460, sequence (Q50927 27-198): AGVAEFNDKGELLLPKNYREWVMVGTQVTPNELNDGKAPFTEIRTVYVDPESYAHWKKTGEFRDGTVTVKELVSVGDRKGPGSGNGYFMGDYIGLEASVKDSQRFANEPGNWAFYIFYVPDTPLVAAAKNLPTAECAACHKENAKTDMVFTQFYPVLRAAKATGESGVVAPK

- Kd: 30 ± 0.7 mM
Structure (SMILES): NO [NH2OH]
